Measured values: BigSolDB 2.1

CC(=O)O[C@]1(C(C)=O)CC[C@H]2[C@@H]3C=C(Cl)C4=CC(=O)[C@@H]5C[C@@H]5[C@]4(C)[C@H]3CC[C@@]21C
solubility (mole fraction)
Conditions | 273.15 K | 278.15 K | 283.15 K | 288.15 K | 293.15 K | 298.15 K | 303.15 K | 308.15 K | 313.15 K | 318.15 K
in MTBE | 0.000675 | 0.000675 | 0.000676 | 0.000676 | 0.000677 | 0.000677 | 0.000678 | 0.000678 | 0.000679 | 0.000679
in methanol | 0.000229 | 0.000229 | 0.000229 | 0.00023 | 0.00023 | 0.00023 | 0.00023 | 0.00023 | 0.00023 | 0.000231
in water | 6.57e-07 | 8.66e-07 | 1.16e-06 | 1.56e-06 | 2.09e-06 | 2.79e-06 | 3.67e-06 | 4.88e-06 | 6.36e-06 | 8.21e-06
